Test results as given in patent US9434725B2, “5-azaindazole compounds and methods of use” (priority 2012, dated 2016).
Where two headings read alike, the source gives them in different places.

How the values were obtained:
PIM1 = PIM1 (Homo sapiens (Human), UniProt P11309); assay: biochemical; type: biochemical; details: 10 μM ATP, 90 min, room temperature; read-out: PIM1 LC3K (KI)
How it was run: (§1)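 Read-out is microfluidic electrophoretic separation of phosphorylated from unphosphorylated fluorescent Pim peptide, with Ki calculated from conversion. Reactions ran 90 min at room temperature in HEPES pH 7.2 containing MgCl2, Tween 20 and DTT, ended by EDTA-containing buffer.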

PIM3 = PIM3 (Homo sapiens (Human), UniProt Q86V86); assay: Pim kinase binding activity, Caliper LC3000 microfluidic peptide phosphorylation assay, PIM3; type: biochemical; details: 10 μM ATP, 90 min, room temperature; read-out: PIM3 LC3K (KI)
How it was run: as §1

BaF3 PIM1 cells = assay: In vitro cell proliferation potency assay (Cell Titer Glo), BaF3 PIM1 cells; type: cell-based, murine; details: read-out: Prolif BaF3_PIM 1 (IC50)
Description: (§2) BaF3 parental line was obtained from the DSMZ repository. BaF3 lines transfected with PIM1 or PIM2 were generated. Mouse IL-3 was purchased from R&D Systems. G418 was purchased from Clontech. Media for BaF3 parental line contained RPMI, 10% FBS, 2 mM L-Glutamine, 2 ng/mL mIL-3. Media for BaF3 PIM1 & 2 lines contained RPMI, 10% FBS, 2 mM L-Glutamine, […]. Media for MM1.S (multiple myeloma cells) line contained RPMI, 10% FBS, 2 mM L-Glutamine.
(§3) BaF3, a murine interleukin-3 dependent pro-B cell line, parental cells, BaF3 PIM1 cells, BaF3 PIM2 cells, and MM1.S (multiple myeloma) cells were seeded at 2 k/well, 5 k/well, 5 k/well, and 10 k/well respectively, in a 384-well plate, at 45 μL/well. Test compound was added at 5 μL/well. BaF3 cells (parental and transfected) were incubated overnight, while MM1.S cells were incubated for 72 hours at 37° C., 5% CO2. CELL TITER GLO® Reagent (Promega) was added at 50 μL/well, the plates were incubated for 30 minutes, and their luminescence read on an HT Analyst. IC50/EC50 values for the test compound were calculated.

PIM2 = PIM2 (Homo sapiens (Human), UniProt Q9P1W9); assay: Pim kinase binding activity, Caliper LC3000 microfluidic peptide phosphorylation assay, PIM2; type: biochemical; details: 10 μM ATP, 90 min, room temperature; read-out: PIM2 LC3K (KI)
How it was run: as §1

[1] = test system: MM1.S (multiple myeloma) cells; assay: In vitro cell proliferation potency assay (Cell Titer Glo), MM1.S cells; type: cell-based; details: read-out: Prolif MM1S ATP (EC50)
Description: as §2, §3

[2] = BaF3 cells transfected with PIM1, incubated overnight
[3] = Homo sapiens, MM1.S cells, 72 hours
[4] = Mus musculus, BaF3, BaF3 cells transfected with PIM1, incubated overnight
[5] = Homo sapiens, MM1.S, 72 h, MM1.S cells, 72 hours

PIM2, sequence (Q9P1W9 whole entry): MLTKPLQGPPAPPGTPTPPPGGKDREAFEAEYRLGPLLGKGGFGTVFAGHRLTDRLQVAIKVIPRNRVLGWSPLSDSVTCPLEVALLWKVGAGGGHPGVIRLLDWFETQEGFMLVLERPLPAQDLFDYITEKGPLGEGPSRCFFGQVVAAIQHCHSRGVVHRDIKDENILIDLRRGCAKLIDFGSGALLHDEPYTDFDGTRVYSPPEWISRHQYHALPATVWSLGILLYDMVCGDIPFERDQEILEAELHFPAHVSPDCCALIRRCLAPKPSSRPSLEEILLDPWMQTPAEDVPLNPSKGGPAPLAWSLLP
PIM1, sequence (P11309 whole entry): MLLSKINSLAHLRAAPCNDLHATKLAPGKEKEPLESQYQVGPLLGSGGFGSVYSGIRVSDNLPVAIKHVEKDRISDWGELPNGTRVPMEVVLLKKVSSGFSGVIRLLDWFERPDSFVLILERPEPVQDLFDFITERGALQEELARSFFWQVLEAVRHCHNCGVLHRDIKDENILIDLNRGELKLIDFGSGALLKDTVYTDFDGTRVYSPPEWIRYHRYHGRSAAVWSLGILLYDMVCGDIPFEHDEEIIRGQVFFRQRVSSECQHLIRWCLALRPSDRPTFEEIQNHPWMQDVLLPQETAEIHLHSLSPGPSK

Ki (PIM1) | Ki (PIM3) | IC50 (BaF3 PIM1 cells; [2]) | Ki (PIM2) | EC50 [1, 3] | IC50 (BaF3 PIM1 cells; [4]) | EC50 ([1]; MM1.S cells, 72 hours) | EC50 [1, 5] | Compound | EC50 ([1]; Homo sapiens, MM1.S, 72 h)
0.06 nM | 0.022 nM | 400 nM | 0.54 nM | 4800 nM |  |  |  | Cc1cncc(-c2cc3c(cn2)cnn3-c2cccc(N3CCNC(C)C3)n2)n1 (single isomer, unassigned) [Compound 185, 1-[6-(3-methylpiperazin-1-yl)-2-pyridyl]-6-(6-methylpyrazin-2-yl)pyrazolo[4,3-c]pyridine] | 
0.189 nM |  | 1400 nM | 2.45 nM |  |  | 4900 nM |  | Cc1cncc(-c2cc3c(cn2)cnn3-c2cccc(C3CNCCC3(F)F)n2)n1 (single isomer, unassigned) [Compound 271] | 
0.067 nM |  | 194 nM | 0.234 nM |  |  | 1200 nM |  | Cc1cncc(-c2cc3c(cn2)cnn3-c2cccc(C3CNCCC3(F)F)n2)n1 (single isomer, unassigned) [Compound 272] | 
0.095 nM | 0.0498 nM |  | 0.893 nM |  | 284 nM |  | 3900 nM | Cc1cncc(-c2cc3c(cn2)cnn3-c2cccc(N3CCNCC3)n2)n1 [Compound 123, 6-(6-methylpyrazin-2-yl)-1-(6-(piperazin-1-yl)pyridin-2-yl)-1H-pyrazolo[4,3-c]pyridine] | 
0.532 nM | 0.656 nM |  | 7.81 nM | 4300 nM | 797 nM |  |  | CC(C)n1cc(-c2cc3c(cn2)cnn3-c2cccc(N3CCCNCC3)n2)cn1 [Compound 146, 1-(6-(1,4-Diazepan-1-yl)pyridin-2-yl)-6-(1-isopropyl-1H-pyrazol-4-yl)-1H-pyrazolo[4,3-c]pyridine] | 
0.213 nM | 0.259 nM |  | 3.92 nM | 2700 nM | 869 nM |  |  | c1cc(N2CCCNCC2)nc(-n2ncc3cnc(-c4cnn(C5CCC5)c4)cc32)c1 [Compound 147, 1-(6-(1,4-Diazepan-1-yl)pyridin-2-yl)-6-(1-cyclobutyl-1H-pyrazol-4-yl)-1H-pyrazolo[4,3-c]pyridine] | 
0.058 nM | 0.048 nM |  | 0.678 nM |  | 240 nM |  | 4700 nM | CCc1cncc(-c2cc3c(cn2)cnn3-c2cccc(N3CCNCC3)n2)n1 [Compound 149, 6-(6-ethylpyrazin-2-yl)-1-(6-piperazin-1-yl-2-pyridyl)pyrazolo[4,3-c]pyridine] | 
 | 0.019 nM |  | 0.333 nM | 1900 nM |  |  |  | CCc1cncc(-c2cc3c(cn2)cnn3-c2cccc(N3CCCNCC3)n2)n1 [Compound 150, 1-[6-(1 4-diazepan-1-yl)-2-pyridyl]-6-(6-ethylpyrazin-2-yl)pyrazolo[4 3-c]pyridine] | 
 | 0.081 nM |  | 3.32 nM |  |  |  | 8600 nM | CCn1cncc(-c2cc3c(cn2)cnn3-c2cccc(N3CCNCC3)n2)c1=O [Compound 151, 3-ethyl-5-[1-(6-piperazin-1-yl-2-pyridyl)pyrazolo[4,3-c]pyridin-6-yl]pyrimidin-4-one] | 
 | 0.085 nM |  | 1.37 nM |  |  |  | 2500 nM | FCCn1cc(-c2cc3c(cn2)cnn3-c2cccc(N3CCCNCC3)n2)cn1 [Compound 153, 1-(6-(1,4-Diazepan-1-yl)pyridin-2-yl)-6-(1-(2-fluoroethyl)-1H-pyrazol-4-yl)-1H-pyrazolo[4,3-c]pyridine] | 
 | 0.175 nM |  | 1.01 nM |  |  |  | 2300 nM | FC(F)(F)Cn1cc(-c2cc3c(cn2)cnn3-c2cccc(N3CCCNCC3)n2)cn1 [Compound 154, 1-(6-(1,4-Diazepan-1-yl)pyridin-2-yl)-6-(1-(2,2,2-trifluoroethyl)-1H-pyrazol-4-yl)-1H-pyrazolo[4,3-c]pyridine] | 
 | 0.109 nM |  | 1.49 nM |  |  |  | 3500 nM | N#CCn1cc(-c2cc3c(cn2)cnn3-c2cccc(N3CCCNCC3)n2)cn1 [Compound 155, 2-(4-(1-(6-(1,4-Diazepan-1-yl)pyridin-2-yl)-1H-pyrazolo[4,3-c]pyridin-6-yl)-1H-pyrazol-1-yl)acetonitrile] | 
 | 0.806 nM |  | 4.74 nM |  |  |  | 5000 nM | Cc1cncc(-c2cc3c(cn2)cnn3-c2cccc(N3CC[C@@H](N)C3)n2)n1 [Compound 168, (3R)-1-[6-[6-(6-methylpyrazin-2-yl)pyrazolo[4,3-c]pyridin-1-yl]-2-pyridyl]pyrrolidin-3-amine] | 
0.078 nM | 0.032 nM |  | 1.39 nM |  |  |  | 2200 nM | Cn1cc(-c2cc3c(cn2)cnn3-c2cccc(N3CCNC[C@H](O)C3)n2)cn1 [Compound 231, (S)-1-(6-(6-(1-Methyl-1H-pyrazol-4-yl)-1H-pyrazolo[4,3-c]pyridin-1-yl)pyridin-2-yl)-1,4-diazepan-6-ol] | 
0.023 nM | 0.026 nM |  | 0.664 nM | 2500 nM |  |  |  | Nc1cncc(-c2cc3c(cn2)cnn3-c2cccc(N3CCCNCC3)n2)n1 [Compound 247, 6-(1-(6-(1,4-diazepan-1-yl)pyridin-2-yl)-1H-pyrazolo[4,3-c]pyridin-6-yl)pyrazin-2-amine] | 
 | 0.021 nM |  | 0.357 nM |  |  |  | 9700 nM | OCCNc1cncc(-c2cc3c(cn2)cnn3-c2cccc(N3CCNCC3)n2)n1 [Compound 282, 2-[[6-[1-(6-piperazin-1-yl-2-pyridyl)pyrazolo[4,3-c]pyridin-6-yl]pyrazin-2-yl]amino]ethanol] | 
 | 0.182 nM |  | 8.05 nM |  |  |  | 8900 nM | O[C@H]1CCC[C@@H]1Nc1cncc(-c2cc3c(cn2)cnn3-c2cccc(N3CCNCC3)n2)n1 [Compound 283] | 
0.044 nM |  |  | 2.28 nM |  | 112 nM |  | 6400 nM | CCNc1cncc(-c2cc3c(cn2)cnn3-c2cccc(N3CCNCC3)n2)n1 [Compound 285, N-ethyl-6-(1-(6-(piperazin-1-yl)pyridin-2-yl)-1H-pyrazolo[4,3-c]pyridin-6-yl)pyrazin-2-amine] | 
1.6 nM | 0.796 nM |  | 19.4 nM | 11700 nM |  |  |  | Cc1cncc(-c2cc3c(cn2)cnn3-c2ccc3c(n2)CC(CN)CO3)n1 (stereo not drawn) [Compound 292, (6-(6-(6-methylpyrazin-2-yl)-1H-pyrazolo[4,3-c]pyridin-1-yl)-3,4-dihydro-2H-pyrano[3,2-b]pyridin-3-yl)methanamine] | 
0.514 nM |  |  | 2.37 nM |  | 772 nM |  | 9300 nM | Cc1cncc(-c2cc3c(cn2)cnn3-c2cccc(C3(F)CCCNC3)n2)n1 (stereo not drawn) [Compound 294, 1-(6-(3-fluoropiperidin-3-yl)pyridin-2-yl)-6-(6-methylpyrazin-2-yl)-1H-pyrazolo[4,3-c]pyridine] | 
 | 0.032 nM |  | 0.228 nM |  |  |  | 2400 nM | OCC#Cc1cncc(-c2cc3c(cn2)cnn3-c2cccc(N3CCNCC3)n2)n1 [Compound 300, 3-(6-(1-(6-(piperazin-1-yl)pyridin-2-yl)-1H-pyrazolo[4,3-c]pyridin-6-yl)pyrazin-2-yl)prop-2-yn-1-ol] | 
 | 0.05 nM |  | 0.71 nM |  |  |  | 7100 nM | Cc1cncc(-c2cc3c(cnn3-c3cccc(N4CCNCC4)n3)nn2)n1 [Compound 313, 6-(6-methylpyrazin-2-yl)-1-(6-(piperazin-1-yl)pyridin-2-yl)-1H-pyrazolo[4,3-c]pyridazine] | 
 | 0.026 nM |  | 1.71 nM |  |  |  | 2700 nM | CC#Cc1cncc(-c2cc3c(cn2)cnn3-c2cccc(N3CCNCC3)n2)n1 [Compound 317, 1-(6-(piperazin-1-yl)pyridin-2-yl)-6-(6-(prop-1-ynyl)pyrazin-2-yl)-1H-pyrazolo[4,3-c]pyridine] | 

Compound | Ki (PIM1) | Ki (PIM3) | IC50 (BaF3 PIM1 cells; [2]) | Ki (PIM2) | EC50 [1, 3] | IC50 (BaF3 PIM1 cells; [4]) | EC50 ([1]; MM1.S cells, 72 hours) | EC50 [1, 5] | EC50 ([1]; Homo sapiens, MM1.S, 72 h)
Cc1ccc(-n2ncc3cnc(-c4cnn(CC(F)(F)F)c4)cc32)nc1N1CCNC[C@@H](O)C1 (single isomer, unassigned) [Compound 260] | 0.047 nM | 0.127 nM |  | 1.54 nM |  | 380 nM |  |  | 852 nM
Cc1cncc(-c2cc3c(cn2)cnn3-c2cccc(N3CCCC4(CN(C=O)C4)C3)n2)n1 [Compound 291, 6-(6-(6-(6-methylpyrazin-2-yl)-1H-pyrazolo[4,3-c]pyridin-1-yl)pyridin-2-yl)-2,6-diazaspiro[3.5]nonane-2-carbaldehyde] | 4.41 nM | 3.42 nM |  | 40.9 nM |  |  |  |  | > 25000 nM
Cc1cncc(-c2cc3c(cn2)cnn3-c2cccc(OC3CCCC(N)C3)n2)n1 (stereo not drawn) [Compound 311, 3-(6-(6-(6-methylpyrazin-2-yl)-1H-pyrazolo[4,3-c]pyridin-1-yl)pyridin-2-yloxy)cyclohexanamine] | 0.069 nM | 0.036 nM |  |  |  | 1000 nM |  | 5500 nM | 
